Source: PubChem BioAssay (NCI)
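Growth conditions: 96-well plates. Treatment: test compound, 48 hours, 5 concentrations. Analysis: linear interpolation between bracketing concentrations; unreached endpoints set to highest concentration. GI50 is the concentration that inhibits growth by half. TGI is the concentration that stops growth completely.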

Assays:
Experiment in all cases: NCI tumour cell line growth inhibition, 48 h
NCI-H522 lung = test system: NCI-H522 lung
COLO 205 colon = test system: COLO 205 colon
T-47D breast = test system: T-47D breast
OVCAR-4 ovarian = test system: OVCAR-4 ovarian
RXF 393 renal = test system: RXF 393 renal
786-0 renal = test system: 786-0 renal
UACC-62 melanoma = test system: UACC-62 melanoma
A549 NSCLC = test system: A549 NSCLC
MOLT-4 leukemia = test system: MOLT-4 leukemia
OVCAR-5 ovarian = test system: OVCAR-5 ovarian
U251 CNS = test system: U251 CNS
SK-MEL-2 melanoma = test system: SK-MEL-2 melanoma
SR leukemia = test system: SR leukemia
UACC-257 melanoma = test system: UACC-257 melanoma
HL-60(TB) leukemia = test system: HL-60(TB) leukemia
OVCAR-8 ovarian = test system: OVCAR-8 ovarian
SK-MEL-28 melanoma = test system: SK-MEL-28 melanoma
HOP-62 NSCLC = test system: HOP-62 NSCLC
NCI-H226 lung = test system: NCI-H226 lung
MDA-MB-435 = test system: MDA-MB-435
ACHN renal = test system: ACHN renal
LOX IMVI melanoma = test system: LOX IMVI melanoma
SF-295 CNS = test system: SF-295 CNS
NCI-H23 lung = test system: NCI-H23 lung
IGROV1 ovarian = test system: IGROV1 ovarian
K-562 leukemia = test system: K-562 leukemia
HCT-15 colon = test system: HCT-15 colon
HS 578T breast = test system: HS 578T breast
SN12C renal = test system: SN12C renal
MDA-MB-231 breast = test system: MDA-MB-231 breast
PC-3 prostate = test system: PC-3 prostate
DU-145 prostate = test system: DU-145 prostate
BT-549 breast = test system: BT-549 breast
TK-10 renal = test system: TK-10 renal
HOP-92 NSCLC = test system: HOP-92 NSCLC
EKVX NSCLC = test system: EKVX NSCLC
A498 renal = test system: A498 renal
SF-268 CNS = test system: SF-268 CNS
NCI/ADR-RES ovarian = test system: NCI/ADR-RES ovarian
OVCAR-3 ovarian = test system: OVCAR-3 ovarian
HCC-2998 colon = test system: HCC-2998 colon
CCRF-CEM leukemia = test system: CCRF-CEM leukemia
SK-OV-3 ovarian = test system: SK-OV-3 ovarian
M14 melanoma = test system: M14 melanoma
SNB-19 CNS = test system: SNB-19 CNS
UO-31 renal = test system: UO-31 renal

With `O=C1c2cccc(NCCN=Cc3cc(O)ccc3O)c2C(=O)c2c(NCCN=Cc3cc(O)ccc3O)cccc21` the GI50 (NCI-H522 lung) was 1330 nM, the TGI (NCI-H522 lung) was 3240 nM and the GI50 (COLO 205 colon) was 495 nM. It also gave a TGI (COLO 205 colon) of 1940 nM, a GI50 (T-47D breast) of 2350 nM and a TGI (T-47D breast) of 7350 nM. It also gave a GI50 (OVCAR-4 ovarian) of 573 nM, a TGI (OVCAR-4 ovarian) of 2640 nM and a GI50 (RXF 393 renal) of 1430 nM. For the same compound, the TGI (RXF 393 renal) was 2960 nM, the GI50 (786-0 renal) was 1880 nM and the TGI (786-0 renal) was 4690 nM. The GI50 (UACC-62 melanoma) was 1680 nM, the TGI (UACC-62 melanoma) was 3570 nM and the GI50 (A549 NSCLC) was 1510 nM. The TGI (A549 NSCLC) was 4240 nM, the GI50 (MOLT-4 leukemia) was 319 nM and the TGI (MOLT-4 leukemia) was 1460 nM. It also gave a GI50 (OVCAR-5 ovarian) of 2120 nM, a TGI (OVCAR-5 ovarian) of 5140 nM and a GI50 (U251 CNS) of 739 nM. For the same compound, the TGI (U251 CNS) was 2560 nM, the GI50 (SK-MEL-2 melanoma) was 2020 nM and the TGI (SK-MEL-2 melanoma) was 3910 nM. For the same compound, the GI50 (SR leukemia) was 601 nM, the TGI (SR leukemia) was 3100 nM and the GI50 (UACC-257 melanoma) was 3100 nM. It also gave a TGI (UACC-257 melanoma) of 10800 nM, a GI50 (HL-60(TB) leukemia) of 1630 nM and a TGI (HL-60(TB) leukemia) of 4190 nM. For the same compound, the GI50 (OVCAR-8 ovarian) was 884 nM, the TGI (OVCAR-8 ovarian) was 3210 nM and the GI50 (SK-MEL-28 melanoma) was 1770 nM. For the same compound, the TGI (SK-MEL-28 melanoma) was 3660 nM, the GI50 (HOP-62 NSCLC) was 1280 nM and the TGI (HOP-62 NSCLC) was 4060 nM. It also gave a GI50 (NCI-H226 lung) of 1210 nM, a TGI (NCI-H226 lung) of 3620 nM and a GI50 (MDA-MB-435) of 1530 nM. It also gave a TGI (MDA-MB-435) of 3080 nM, a GI50 (ACHN renal) of 2050 nM and a TGI (ACHN renal) of 8930 nM. The GI50 (LOX IMVI melanoma) was 762 nM, the TGI (LOX IMVI melanoma) was 2250 nM and the GI50 (SF-295 CNS) was 1360 nM. The TGI (SF-295 CNS) was 4240 nM, the GI50 (NCI-H23 lung) was 1440 nM and the TGI (NCI-H23 lung) was 3490 nM. The GI50 (IGROV1 ovarian) was 1190 nM, the TGI (IGROV1 ovarian) was 4590 nM and the GI50 (K-562 leukemia) was 1450 nM. It also gave a TGI (K-562 leukemia) of 3900 nM, a GI50 (HCT-15 colon) of 2840 nM and a TGI (HCT-15 colon) of 10500 nM. The GI50 (HS 578T breast) was 1030 nM, the TGI (HS 578T breast) was 3780 nM and the GI50 (SN12C renal) was 737 nM. For the same compound, the TGI (SN12C renal) was 3900 nM, the GI50 (MDA-MB-231 breast) was 877 nM and the TGI (MDA-MB-231 breast) was 2250 nM. For the same compound, the GI50 (PC-3 prostate) was 1170 nM, the TGI (PC-3 prostate) was 3970 nM and the GI50 (DU-145 prostate) was 1390 nM. It also gave a TGI (DU-145 prostate) of 5430 nM, a GI50 (BT-549 breast) of 1890 nM and a TGI (BT-549 breast) of 7770 nM. The GI50 (TK-10 renal) was 2210 nM, the TGI (TK-10 renal) was 5800 nM and the GI50 (HOP-92 NSCLC) was 1290 nM. It also gave a TGI (HOP-92 NSCLC) of 4870 nM, a GI50 (EKVX NSCLC) of 1800 nM and a TGI (EKVX NSCLC) of 5770 nM. It also gave a GI50 (A498 renal) of 1410 nM, a TGI (A498 renal) of 3100 nM and a GI50 (SF-268 CNS) of 776 nM. The TGI (SF-268 CNS) was 3250 nM, the GI50 (NCI/ADR-RES ovarian) was 13400 nM and the TGI (NCI/ADR-RES ovarian) was 35900 nM. For the same compound, the GI50 (OVCAR-3 ovarian) was 1630 nM, the TGI (OVCAR-3 ovarian) was 4280 nM and the GI50 (HCC-2998 colon) was 1390 nM. For the same compound, the TGI (HCC-2998 colon) was 2930 nM, the GI50 (CCRF-CEM leukemia) was 351 nM and the TGI (CCRF-CEM leukemia) was 1630 nM. The GI50 (SK-OV-3 ovarian) was 2340 nM, the TGI (SK-OV-3 ovarian) was 7630 nM and the GI50 (M14 melanoma) was 2010 nM. The TGI (M14 melanoma) was 4590 nM, the GI50 (SNB-19 CNS) was 1550 nM and the TGI (SNB-19 CNS) was 5100 nM. For the same compound, the GI50 (UO-31 renal) was 1710 nM and the TGI (UO-31 renal) was 6130 nM.
